According to publication PMC9090415, “Discovery of small molecule inhibitors of Plasmodium falciparum apicoplast DNA polymerase” (Journal of Enzyme Inhibition and Medicinal Chemistry, 2022):

Biological target: P. falciparum apicoplast DNA polymerase (Pf-apPOL) (Plasmodium falciparum, UniProt Q8ILY1)
Assay: Fluorescence-based high-throughput DNA polymerase assay (molecular beacon), primary screen and dose-response;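 as to % inhibition ApPOL 90': test concentration in µM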;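 as to % inhibition apPOL 180': test concentration in µM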
Type: biochemical
Conditions: for DNA Pol: unit not given, 90 min, 10 µM
Outline: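 Single-point screening used 10 µM compound with 20 nM polymerase, 20 nM hairpin substrate and 6 µM dNTPs for 90 min at 25 °C. Confirmatory titrations (2.5–80 µM) followed fluorescence at three times, and IC50 was derived from a fit including a cooperativity term n.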

[1] = DRC-2, 90', concentration 20 (unit not given)

Chain of P. falciparum apicoplast DNA polymerase (Pf-apPOL) (Q8ILY1 entry or part of it): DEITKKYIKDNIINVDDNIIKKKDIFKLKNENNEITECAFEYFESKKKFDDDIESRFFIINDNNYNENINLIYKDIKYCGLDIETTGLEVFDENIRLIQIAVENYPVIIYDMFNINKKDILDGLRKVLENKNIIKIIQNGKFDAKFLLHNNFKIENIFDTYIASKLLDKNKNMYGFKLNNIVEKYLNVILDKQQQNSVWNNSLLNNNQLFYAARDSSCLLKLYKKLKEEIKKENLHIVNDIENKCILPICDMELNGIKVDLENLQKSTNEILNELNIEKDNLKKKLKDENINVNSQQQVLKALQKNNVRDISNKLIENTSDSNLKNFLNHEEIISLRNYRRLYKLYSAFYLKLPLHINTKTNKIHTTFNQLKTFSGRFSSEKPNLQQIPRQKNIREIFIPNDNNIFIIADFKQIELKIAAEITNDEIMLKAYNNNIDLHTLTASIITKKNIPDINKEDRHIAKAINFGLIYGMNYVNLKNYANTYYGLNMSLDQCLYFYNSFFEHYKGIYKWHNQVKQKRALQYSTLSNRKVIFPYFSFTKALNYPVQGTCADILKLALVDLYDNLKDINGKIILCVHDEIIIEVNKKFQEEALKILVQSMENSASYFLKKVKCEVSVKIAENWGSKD

## Cc1cccc(CC(=O)N2CCc3c(nc4cc(-c5ccccc5)[nH]n4c3=O)C2)c1 [Molecule 12, Cc1cccc(c1)CC(=O)N1CCc2c(C1)nc1n(c2=O)[nH]c(c1)c1ccccc1]
DRC-1, concentration 2.5
  % inhibition Apo pol 10': 15%
DRC-1, concentration 5
  % inhibition Apo pol 10': 48%
DRC-1, concentration 10
  % inhibition Apo pol 10': 68%
DRC-1, concentration 20
  % inhibition Apo pol 10': 81%
DRC-1, concentration 40
  % inhibition Apo pol 10': 86%
DRC-1, concentration 80
  % inhibition Apo pol 10': 83%
DRC-1, 90', concentration 2.5
  % inhibition Apol 90': 3.59%
DRC-1, 90', concentration 5
  % inhibition Apol 90': 28%
DRC-1, 90', concentration 10
  % inhibition Apol 90': 50%
DRC-1, 90', concentration 20
  % inhibition Apol 90': 69%
DRC-1, 90', concentration 40
  % inhibition Apol 90': 81%
DRC-1, 90', concentration 80
  % inhibition Apol 90': 85%
DRC-1, 180', concentration 2.5
  % inhibition apPOL 180': -4%
DRC-1, 180', concentration 5
  % inhibition apPOL 180': 13%
DRC-1, 180', concentration 10
  % inhibition apPOL 180': 32%
DRC-1, 180', concentration 20
  % inhibition apPOL 180': 55%
DRC-1, 180', concentration 40
  % inhibition apPOL 180': 73%
DRC-1, 180', concentration 80
  % inhibition apPOL 180': 82%
DRC-2, 5', concentration 10 (unit not given)
  % inhibition Apo pol 5': 44%
DRC-2, 5', concentration 40 (unit not given)
  % inhibition Apo pol 5': 48%
DRC-2, 40', concentration 40 (unit not given)
  % inhibition Apol 40': 66%
[1]
  % inhibition ApPOL 90': 66%
DRC-2, 90', concentration 40 (unit not given)
  % inhibition ApPOL 90': 70%
DRC-2, 180', concentration 10 (unit not given)
  % inhibition apPOL 180': 44%
DRC-2, 180', concentration 40 (unit not given)
  % inhibition apPOL 180': 70%
DRC-2, 180', concentration 80 (unit not given)
  % inhibition apPOL 180': 69%
DRC-2, 5', concentration 2.5
  % inhibition Apo pol 5': 7%
DRC-2, 5', concentration 5
  % inhibition Apo pol 5': 23%
DRC-2, 5', concentration 10
  % inhibition Apo pol 5': 44%
DRC-2, 5', concentration 20
  % inhibition Apo pol 5': 49%
DRC-2, 5', concentration 40
  % inhibition Apo pol 5': 48%
DRC-2, 5', concentration 80
  % inhibition Apo pol 5': 43%
DRC-2, 40', concentration 2.5
  % inhibition Apol 40': 5.58%
DRC-2, 40', concentration 5
  % inhibition Apol 40': 25%
DRC-2, 40', concentration 10
  % inhibition Apol 40': 54%
DRC-2, 40', concentration 20
  % inhibition Apol 40': 65%
DRC-2, 40', concentration 40
  % inhibition Apol 40': 66%
DRC-2, 40', concentration 80
  % inhibition Apol 40': 62%
DRC-2, 90', concentration 2.5
  % inhibition ApPOL 90': 4.61%
DRC-2, 90', concentration 5
  % inhibition ApPOL 90': 22%
DRC-2, 90', concentration 10
  % inhibition ApPOL 90': 53%
DRC-2, 90', concentration 20
  % inhibition ApPOL 90': 66%
DRC-2, 90', concentration 40
  % inhibition ApPOL 90': 70%
DRC-2, 90', concentration 80
  % inhibition ApPOL 90': 67%
DRC-2, 180', concentration 2.5
  % inhibition apPOL 180': 2.3%
DRC-2, 180', concentration 5
  % inhibition apPOL 180': 12%
DRC-2, 180', concentration 10
  % inhibition apPOL 180': 44%
DRC-2, 180', concentration 20
  % inhibition apPOL 180': 63%
DRC-2, 180', concentration 40
  % inhibition apPOL 180': 70%
DRC-2, 180', concentration 80
  % inhibition apPOL 180': 69%
First dose-response, concentration 5 (unit not given)
  % inhibition Apo pol 10': 48%
First dose-response, concentration 20 (unit not given)
  % inhibition Apo pol 10': 81%
First dose-response, 90', concentration 20 (unit not given)
  % inhibition Apol 90': 69%
First dose-response, 90', concentration 40 (unit not given)
  % inhibition Apol 90': 81%
Primary screen value of the 186 hits
  DNA Pol: 49
Primary screen value, head "DNA Pol"
  DNA Pol: 49

## CCCCc1ccc(NC(=O)CSc2nc(C3CCCCC3)c(C#N)c(=O)[nH]2)c(C)c1 [Molecule 8, CCCCc1ccc(c(c1)C)NC(=O)CSc1nc(C2CCCCC2)c(c(=O)[nH]1)C#N]
'DNA Pol' of the 186 hits list (primary screen result)
  DNA Pol: 95
DRC-1, concentration 2.5
  % inhibition Apo pol 10': -1.955%
DRC-1, concentration 5
  % inhibition Apo pol 10': 13.3371%
DRC-1, concentration 10
  % inhibition Apo pol 10': 62.6303%
DRC-1, concentration 20
  % inhibition Apo pol 10': 77.3201%
DRC-1, concentration 40
  % inhibition Apo pol 10': 94.4176%
DRC-1, concentration 80
  % inhibition Apo pol 10': 94.8178%
DRC-1, 90', concentration 2.5
  % inhibition Apol 90': 1.126%
DRC-1, 90', concentration 5
  % inhibition Apol 90': 14.1038%
DRC-1, 90', concentration 10
  % inhibition Apol 90': 58.4598%
DRC-1, 90', concentration 20
  % inhibition Apol 90': 77.2827%
DRC-1, 90', concentration 40
  % inhibition Apol 90': 94.9708%
DRC-1, 90', concentration 80
  % inhibition Apol 90': 95.9505%
DRC-1, 180', concentration 2.5
  % inhibition apPOL 180': 1.158%
DRC-1, 180', concentration 5
  % inhibition apPOL 180': 7.482%
DRC-1, 180', concentration 10
  % inhibition apPOL 180': 46.1044%
DRC-1, 180', concentration 20
  % inhibition apPOL 180': 69.2922%
DRC-1, 180', concentration 40
  % inhibition apPOL 180': 95.0497%
DRC-1, 180', concentration 80
  % inhibition apPOL 180': 96.1544%
DRC-2, 5', concentration 20 (unit not given)
  % inhibition Apo pol 5': 40%
DRC-2, 40', concentration 20 (unit not given)
  % inhibition Apol 40': 48%
[1]
  % inhibition ApPOL 90': 48%
DRC-2, 180', concentration 20 (unit not given)
  % inhibition apPOL 180': 40%
DRC-2, 5', concentration 2.5
  % inhibition Apo pol 5': -2.67%
DRC-2, 5', concentration 5
  % inhibition Apo pol 5': 2.83%
DRC-2, 5', concentration 10
  % inhibition Apo pol 5': 12%
DRC-2, 5', concentration 20
  % inhibition Apo pol 5': 40%
DRC-2, 5', concentration 40
  % inhibition Apo pol 5': 61%
DRC-2, 5', concentration 80
  % inhibition Apo pol 5': 65%
DRC-2, 40', concentration 2.5
  % inhibition Apol 40': 1.81%
DRC-2, 40', concentration 5
  % inhibition Apol 40': 5%
DRC-2, 40', concentration 10
  % inhibition Apol 40': 16%
DRC-2, 40', concentration 20
  % inhibition Apol 40': 48%
DRC-2, 40', concentration 40
  % inhibition Apol 40': 72%
DRC-2, 40', concentration 80
  % inhibition Apol 40': 79%
DRC-2, 90', concentration 2.5
  % inhibition ApPOL 90': 1.18%
DRC-2, 90', concentration 5
  % inhibition ApPOL 90': 4%
DRC-2, 90', concentration 10
  % inhibition ApPOL 90': 15%
DRC-2, 90', concentration 20
  % inhibition ApPOL 90': 48%
DRC-2, 90', concentration 40
  % inhibition ApPOL 90': 73%
DRC-2, 90', concentration 80
  % inhibition ApPOL 90': 83%
DRC-2, 180', concentration 2.5
  % inhibition apPOL 180': -0.672%
DRC-2, 180', concentration 5
  % inhibition apPOL 180': -0.274%
DRC-2, 180', concentration 10
  % inhibition apPOL 180': 9%
DRC-2, 180', concentration 20
  % inhibition apPOL 180': 40%
DRC-2, 180', concentration 40
  % inhibition apPOL 180': 71%
DRC-2, 180', concentration 80
  % inhibition apPOL 180': 86%
Primary screen value of the library well
  DNA Pol: 95
